Experimental data as given in patent publication US20190000829A1, “THERAPEUTIC AGENT FOR BILIARY TRACT CANCER” (Eisai R&D Management Co., Ltd., priority 2015, published 2019).

How the values were obtained:
[1] = tested on: human carcinoma of the ampulla of Vater cell line (SNU-869 cell line); test: Tumor growth-inhibitory effect in model subcutaneously transplanted with human carcinoma of the ampulla of Vater cell line (SNU-869); format: in vivo; settings: SNU-869 subcutaneous xenograft, nude mice; mesylate of compound A 1, 3, 10, 30, 100 mg/kg orally once a day for 14 days
Procedure: (§1) An antitumor effect produced by administration of compound A was evaluated with six nude mice in each group (CAnN.Cg-Foxn1^nu/CrlCrlj, female, Charles River Laboratories Japan, Inc.). The human-derived human carcinoma of the ampulla of Vater SNU-869 cell lines (Creative Bioarray) were suspended in RPMI1640 medium (Wako Pure Chemical Industries, Ltd., supplemented with 25 mM HEPES and 10% FBS) at a concentration of 2×10^8 cells/mL and were mixed well. The cell suspension was further mixed with an equal amount of Matrigel basement membrane matrix (Corning Incorporated) to prepare a cell suspension at 1×10^8 cells/mL, and aliquots of 0.1 mL were subcutaneously transplanted into the right flank of each mouse. Seven days after transplantation, the longest diameter and the short axis of the tumors were measured by an electronic digital caliper (ABS Digimatic Caliper, Mitutoyo Corporation). The mice were divided into groups so that the average of tumor volumes of each group became approximately equal. In this regard, the tumor volume was calculated according to the following formula.
(§2) Tumor volume (mm^3)=longest diameter (mm)×short axis (mm)×short axis (mm)/2 […]
(§3) The tumor volume was measured on the day when the administration was started (Day 1), Day 4, Day 8, and Day 11, and the day following the last day of administration (Day 15). […]

[2] = tested on: human cholangiocarcinoma cell line (OZ cell line); test: Tumor growth-inhibitory effect in model subcutaneously transplanted with human cholangiocarcinoma cell line (OZ); format: in vivo; settings: OZ subcutaneous xenograft, nude mice; mesylate of compound A 1, 3, 10, 30, 100 mg/kg orally once a day for 14 days
Procedure: as §1, with “five” for “six”, “cholangiocarcinoma OZ” for “human carcinoma of the ampulla of Vater SNU-869”, “(JCRB Cell Bank)” for “(Creative Bioarray)”, “Williams'E (Sigma-Aldrich Corporation,” for “RPMI1640 medium (Wako Pure Chemical Industries, Ltd.,”, “2 mmol/L L-glutamine” for “25 mM HEPES”, “Thirteen” for “Seven”
as §2
The tumor volume was measured on the day when the administration was started (Day 1), Day 5, Day 8, and Day 12, and the clay following the last day of administration (Day 15). […]

[3] = tested on: human extrahepatic cholangiocarcinoma cell line (TFK-1 cell line); test: Tumor growth-inhibitory effect in model subcutaneously transplanted with human extrahepatic cholangiocarcinoma cell line (TFK-1); format: in vivo; settings: TFK-1 subcutaneous xenograft, nude mice; mesylate of compound A 1, 3, 10, 30, 100 mg/kg orally once a day for 14 days
Procedure: as §1, with “extrahepatic cholangiocarcinoma TFK-1” for “human carcinoma of the ampulla of Vater SNU-869”, “(Riken BioResource Center)” for “(Creative Bioarray)”, “with” for “with 25 mM HEPES and”
as §2, §3

[4] = tested on: unresectable biliary tract cancer; test: Multicenter, unblinded, phase II clinical trial in patients with unresectable biliary tract cancer after combination chemotherapy involving gemcitabine (interim analysis); format: in vivo, human
From the text: This clinical trial was a multicenter, single-group, unblinded clinical trial for patients with a prior treatment history who had received one regimen using two-drug combination chemotherapy involving gemcitabine (two-drug combination chemotherapy using gemcitabine and cisplatin, or gemcitabine and another platinum-based drug or a fluorinated pyrimidine drug) for their unresectable biliary tract cancers.
This clinical trial was composed of three periods, which were a pretreatment period, an administration period, and a follow-up period. During the pretreatment period, screening was performed within 21 days. The administration period was composed of administration of mesylate of compound A as an investigational drug in each cycle and tumor assessment performed every 6 to 8 weeks. The follow-up period was started immediately after the day when administration was discontinued and was continued while the subject was alive until withdrawal of consent by the subject or completion of the clinical trial.
The investigational drug, mesylate of compound A, was administered orally once a day in a cycle of 28 days at a dose of 24 mg in terms of compound A in free form, and administration was continued until disease progression, an unacceptable adverse event, withdrawal of consent by the subject, or the like occurred.
The primary objective of the clinical trial was to determine an objective response rate (ORR) of the investigational drug for patients with an unresectable biliary tract cancer after combination chemotherapy involving gemcitabine.
The secondary objective of the clinical trial was to determine a progression-free survival (PFS), an overall survival (OS), a disease control rate (DCR), a clinical benefit rate (CBR), adverse events (AEs), and the number of subjects who developed serious adverse events (SAEs), and a blood concentration. In this context, ORR is defined as a rate of subjects with their best overall response (BOR) being complete response (CR) or partial response (PR). […]

COc1cc2nccc(Oc3ccc(NC(=O)NC4CC4)c(Cl)c3)c2cc1C(N)=O [compound A, 4-[3-chloro-4-(cyclopropylaminocarbonyl)aminophenoxy]-7-methoxy-6-quinolinecarboxamide]
antitumor effect (tumor volume on Day 15 vs control) [1]: dose-dependent antitumor effect | antitumor effect (tumor volume on Day 15 vs control) [2]: dose-dependent antitumor effect | antitumor effect (tumor volume on Day 15 vs control) [3]: dose-dependent antitumor effect | stable disease (SD, 6 weeks or more), percentage of patients ([4]; 17 patients, mesylate of compound A orally once a day, 24 mg in terms of free form, 28-day cycles, 13 patients): 76.5% | partial response (PR), percentage of patients ([4]; 17 patients, mesylate of compound A orally once a day, 24 mg in terms of free form, 28-day cycles, one patient): 5.9% | tendency for tumor regression, number of patients ([4]; among 13 SD patients, 24 mg orally once a day): 8 patients
